From patent publication US20240374761A1, “ANIMAL MODEL HAVING HOMOLOGOUS RECOMBINATION OF MOUSE PTH1 RECEPTOR” (RADIUS PHARMACEUTICALS, INC., priority 2021, published 2024)
“Also recorded” adds a separate entry of the source. Read-outs that look alike come from different tables or passages of the source.

Experiments:
[1] = target: T1, endogenous rodent PTH receptor (WT C57BL/6 mice) (Mus musculus, UniProt P41593); experiment: Blood ionized calcium (Ca++) response to PTH ligand analog injection in wild-type mice; assay type: in vivo; settings: 40 nmol/kg subcutaneous
T1 construct: WT mice expressing the endogenous rodent PTH receptor; endogenous in cells; host or cells: wild-type C57BL/6(n) mice, in vivo (bone and kidney)
T1 sequence (P41593 27-591): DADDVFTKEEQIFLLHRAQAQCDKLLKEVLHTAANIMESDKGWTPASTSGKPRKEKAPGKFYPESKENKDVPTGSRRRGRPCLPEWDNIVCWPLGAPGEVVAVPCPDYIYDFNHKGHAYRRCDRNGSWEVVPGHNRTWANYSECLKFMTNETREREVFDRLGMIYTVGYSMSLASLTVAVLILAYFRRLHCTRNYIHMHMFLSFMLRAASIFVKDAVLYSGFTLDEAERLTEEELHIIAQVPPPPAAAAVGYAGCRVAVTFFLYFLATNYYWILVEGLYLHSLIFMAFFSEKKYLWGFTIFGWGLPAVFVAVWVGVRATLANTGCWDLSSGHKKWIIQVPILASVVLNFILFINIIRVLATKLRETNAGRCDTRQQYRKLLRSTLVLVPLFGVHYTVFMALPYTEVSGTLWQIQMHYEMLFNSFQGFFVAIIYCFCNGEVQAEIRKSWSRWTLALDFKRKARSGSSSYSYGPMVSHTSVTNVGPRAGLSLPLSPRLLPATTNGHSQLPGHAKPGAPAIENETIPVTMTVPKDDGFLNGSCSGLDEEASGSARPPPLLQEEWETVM
Experimental: (§1) The utility of the hPTH1R-KI mice of the present disclosure as a model for predicting the behavior of different PTH and PTHrP analog peptides was evaluated. Ligand-induced PTH1R signaling in bone and kidney results in a rapid increase in blood levels of free ionized calcium (Ca^++) and a decrease in blood levels of inorganic phosphorus (Pi); changes that occur through the promotion of the release of Ca and Pi from bone mineral stores, the reabsorption of Ca from the renal filtrate, and a suppression of Pi reabsorption in the kidney. Thus, blood Ca^++ and Pi levels were measured in WT and hPTH1R-KI mice before and at times after injection of PTH ligands.
Blood ionized calcium (Ca^++) levels were measured in homozygous mice comprising a heterologous polynucleotide comprising human Parathyroid Hormone 1 Receptor (hPTH1R) exons 4 to 16 (hereinafter “hPTH1R-KI” mice), and WT C57BL/6(n) mice, at age 10 weeks. Mice were treated in accordance with the ethical guidelines adopted by the Massachusetts General Hospital (MGH). […]
Blood was collected from a ˜2 mm tail vein incision and placed into heparinized capillary tube (Multi-cap-S, Siemens Healthcare Diagnostics Inc, Catalog No. 05656514) just prior to injection (t=0), and at 1, 2, 4 and 8 hours after injection, then immediately analyzed for pH-adjusted ionized calcium using a Siemens RapidLab 348 Ca^2+/pH analyzer. […]

[2] = target: T2, human PTH1R (hPTH1R-KI mice) (Homo sapiens, UniProt Q03431); experiment: Blood ionized calcium (Ca++) response to PTH ligand analog injection in hPTH1R-KI mice; assay type: in vivo, mouse; settings: 40 nmol/kg subcutaneous
T2 construct: Met593 (followed by a stop codon); expressed in transfected cells; host or cells: homozygous hPTH1R-KI C57BL/6 mice (knock-in at the mouse Pth1r locus), in vivo
T2 sequence (Q03431 23-593 E90Y/S91D/E92V/E93P/K95Y/E96A): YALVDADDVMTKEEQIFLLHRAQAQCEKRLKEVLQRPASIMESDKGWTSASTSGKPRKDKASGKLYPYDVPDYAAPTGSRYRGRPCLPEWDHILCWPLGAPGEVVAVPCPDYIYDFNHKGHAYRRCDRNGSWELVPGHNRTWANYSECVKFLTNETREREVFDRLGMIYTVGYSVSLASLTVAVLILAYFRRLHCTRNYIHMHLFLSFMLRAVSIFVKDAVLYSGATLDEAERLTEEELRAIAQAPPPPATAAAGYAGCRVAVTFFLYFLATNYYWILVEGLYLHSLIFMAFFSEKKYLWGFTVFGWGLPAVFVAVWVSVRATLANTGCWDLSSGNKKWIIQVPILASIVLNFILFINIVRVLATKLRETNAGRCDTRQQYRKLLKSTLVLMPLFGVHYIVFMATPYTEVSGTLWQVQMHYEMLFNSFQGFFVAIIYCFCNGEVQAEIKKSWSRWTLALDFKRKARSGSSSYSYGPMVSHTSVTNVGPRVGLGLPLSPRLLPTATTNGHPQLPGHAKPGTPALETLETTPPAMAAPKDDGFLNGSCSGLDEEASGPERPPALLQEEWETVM
Experimental: as §1
Blood ionized calcium (Ca^++) levels were measured in homozygous mice comprising a heterologous polynucleotide comprising human Parathyroid Hormone 1 Receptor (hPTH1R) exons 4 to 16 (hereinafter “hPTH1R-KI” mice), and WT C57BL/6(n) mice, at age 10 weeks. Mice were treated in accordance with the ethical guidelines adopted by the Massachusetts General Hospital (MGH). Mice were injected subcutaneously in the interscapular region with vehicle (5 mM citrate, 150 mM NaCl, 0.05% Tween80, pH 5.0), or vehicle containing either PTH(1-34), PTHrP(1-36) or abaloparatide, each peptide at a dose of 40 nmol/kg of body weight, with five animals per group.
Blood was collected from a ˜2 mm tail vein incision and placed into heparinized capillary tube (Multi-cap-S, Siemens Healthcare Diagnostics Inc, Catalog No. 05656514) just prior to injection (t=0), and at 1, 2, 4 and 8 hours after injection, then immediately analyzed for pH-adjusted ionized calcium using a Siemens RapidLab 348 Ca^2+/pH analyzer.
Data was processed using Microsoft Excel 2016 and GraphPad Prism 8.0. Data is represented as means+/−standard error, and statistical significance was assessed using a two-tailed Students t-test. Two replicate experiments were performed on separated days for each set of 20 hPTH1R-KI and 20 WT control mice n hPTH1R-KI mice. The replicate experiments gave essentially the same result for the two groups, and the data (n=10) were combined as means+SEM.

[3] = target: T2, human PTH1R (hPTH1R-KI mice); experiment: Serum inorganic phosphorus (Pi) response to PTH ligand analog injection in hPTH1R-KI mice; assay type: in vivo; settings: 40 nmol/kg
Experimental: To assess changes to blood Pi in response to PTH ligand injection, 10-week-old hPTH1R-KI and wild-type mice were injected with PTH(1-34), PTHrP(1-36), or Abaloparatide (see Example 13) each at a dose of 40 nmol/kg (n=5 mice per group). Tail vein blood was collected into a 1 mL microcentrifuge tubes containing 3 μL 0.5 mM EDTA on ice at t=0, 1, 2, 4, and 8 hours post-injection. The blood samples were centrifuged at 8,000 rpm at 4° C. for 15 minutes, and plasma supernatant was collected and frozen at −80° C. Plasma phosphate was analyzed using a colorimetric phosphate assay kit (AbCam. UK, Catalog No. ab65622).

PTH1R (WT mice) = target: T3, PTH1R (WT mice) (Mus musculus, UniProt P41593); experiment: Antagonist response: blood calcium after co-injection with PTH(1-34) in WT mice; assay type: in vivo; settings: 3-month-old WT mice, 40 nmol/kg subcutaneous
T3 construct: WT mice expressing the endogenous rodent PTH receptor; endogenous in cells; host or cells: wild-type C57BL/6(n) mice, in vivo (bone and kidney)
T3 sequence (P41593 27-591): T1 sequence (P41593 27-591)
Experimental: (§2) Briefly, to assess the responses to antagonist PTH analogs, 3-month-old WT or hPTH1R-KI mice were injected subcutaneously with either (1) vehicle, (2) vehicle containing PTH(1-34) alone at 40 nmol/kg, or (3) PTH(1-34) at 40 nmol/kg together with an antagonist peptide, LA-PTH(7-36) or [Leu^11,dTrp^12,Trp^23,Tyr^36]-PTHrP(7-36), each antagonist at a dose of 500 nmol/kg (n=5 mice per group). Blood was collected from the tail vein and calcium was measured as described above in Example 13.

[4] = target: T2, human PTH1R (hPTH1R-KI mice); experiment: Antagonist response: blood calcium after co-injection with PTH(1-34) in hPTH1R-KI mice; assay type: in vivo, mouse; settings: 3-month-old hPTH1R-KI mice, 40 nmol/kg subcutaneous
Experimental: as §2

[5] = cited from earlier work
[6] = target: T4, RG conformation of the PTH1R (Homo sapiens, UniProt Q03431); settings: versus R0 conformation; compared with teriparatide / PTH and PTHrP ligands; cited from earlier work
T4 sequence (Q03431 27-593): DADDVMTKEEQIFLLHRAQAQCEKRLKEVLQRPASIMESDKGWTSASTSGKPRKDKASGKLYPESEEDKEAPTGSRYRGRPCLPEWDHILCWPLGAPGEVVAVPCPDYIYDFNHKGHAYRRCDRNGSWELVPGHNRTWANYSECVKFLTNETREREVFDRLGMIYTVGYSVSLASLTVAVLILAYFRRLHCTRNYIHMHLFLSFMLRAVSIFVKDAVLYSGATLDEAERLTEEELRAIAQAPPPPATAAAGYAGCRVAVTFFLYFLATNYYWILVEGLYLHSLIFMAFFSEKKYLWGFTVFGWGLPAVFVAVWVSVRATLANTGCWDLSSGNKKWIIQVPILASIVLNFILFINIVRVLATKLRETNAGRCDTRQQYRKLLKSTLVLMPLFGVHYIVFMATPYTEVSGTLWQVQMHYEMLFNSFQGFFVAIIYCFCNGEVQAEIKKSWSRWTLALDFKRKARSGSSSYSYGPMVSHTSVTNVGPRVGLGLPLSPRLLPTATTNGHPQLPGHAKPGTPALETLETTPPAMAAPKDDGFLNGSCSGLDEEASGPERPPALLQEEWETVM

[7] = test system: ovariectomy-induced osteopenic rats; settings: cited from earlier work
[8] = test system: ovariectomy-induced osteopenic monkeys; settings: cited from earlier work

| Compound | difference in calcemic response duration compared to the other two ligands [1] | duration of calcemic response [2] | blood Ca++ levels at 4 hours [2] | phosphaturic response profile [3] | serum Pi levels at 2 hours post-injection [3] | blood calcium levels after PTH(1-34) alone (PTH1R (WT mice)) | blood calcium levels after PTH(1-34) alone [4] | rate of clearance from the blood ([5]; previous analyses) | binding selectivity for the RG conformation of PTH1R [6] | reversal of bone loss [7] | reversal of bone loss [8] | rate of clearance from the blood ([5]; in vivo) |
| --- | --- | --- | --- | --- | --- | --- | --- | --- | --- | --- | --- | --- |
| CC[C@H](C)[C@H](NC(=O)[C@H](CCC(=O)O)NC(=O)[C@H](CO)NC(=O)[C@@H](NC(=O)[C@@H](N)CO)C(C)C)C(=O)N[C@@H](CCC(N)=O)C(=O)N[C@@H](CC(C)C)C(=O)N[C@@H](CCSC)C(=O)N[C@@H](Cc1cnc[nH]1)C(=O)N[C@@H](CC(N)=O)C(=O)N[C@@H](CC(C)C)C(=O)NCC(=O)N[C@@H](CCCCN)C(=O)N[C@@H](Cc1cnc[nH]1)C(=O)N[C@@H](CC(C)C)C(=O)N[C@@H](CC(N)=O)C(=O)N[C@@H](CO)C(=O)N[C@@H](CCSC)C(=O)N[C@@H](CCC(=O)O)C(=O)N[C@@H](CCCN=C(N)N)C(=O)N[C@H](C(=O)N[C@@H](CCC(=O)O)C(=O)N[C@@H](Cc1c[nH]c2ccccc12)C(=O)N[C@@H](CC(C)C)C(=O)N[C@@H](CCCN=C(N)N)C(=O)N[C@@H](CCCCN)C(=O)N[C@@H](CCCCN)C(=O)N[C@@H](CC(C)C)C(=O)N[C@@H](CCC(N)=O)C(=O)N[C@@H](CC(=O)O)C(=O)N[C@H](C(=O)N[C@@H](Cc1cnc[nH]1)C(=O)N[C@@H](CC(N)=O)C(=O)N[C@@H](Cc1ccccc1)C(=O)O)C(C)C)C(C)C [PTH(1-34)] | not seen | more prolonged calcemic response | remained elevated | more prolonged activity in vivo | remained low | expected rise in blood calcium levels | expected rise in blood calcium levels | comparable rates of clearance |  |  |  |  |
| PTHrP(1-36) |  | more a transient functional response | returned to baseline |  |  |  |  |  |  |  |  |  |
| abaloparatide: synthetic 34-amino acid PTHrP(1-34)-based analogue, AVSEHQLLHDKGKSIQDLRRRELLEKLLXKLHTA, X is Aib (SEQ ID NO: 22) |  | more a transient functional response | returned to baseline |  | returned to near-vehicle control levels |  |  |  | more selectively than teriparatide; also recorded: greater selectivity | complete reversal of bone loss | complete reversal of bone loss | comparable rates of clearance |
